Experimental data from ChEMBL document CHEMBL1201862, “PubChem BioAssay data set” (2004).
Active and inactive are the calls of the source.

Assays:
[1] = molecular target: Peroxisome proliferator-activated receptor gamma/Nuclear receptor coactivator 1 (Homo sapiens, UniProt P37231); assay: TR-FRET dose response biochemical High Throughput Screening assay for agonists of the steroid receptor coactivator 1 (SRC-1) recruitment by the peroxisome proliferator-activated receptor gamma (PPAR gamma): non-selective agonists. [Related pubchem assays (depositor defined):AID1300, AID1808, AID504735, AID631]; format: protein assay
[2] = molecular target: Trypsin (Sus scrofa, UniProt P00761); assay: trypsin protease activity blockade – biochemical, quenched peptide fluorescence, cherry-pick, selectivity assay for Rce1 protease inhibitor project, dose response (AID 488789)
[3] = molecular target: Peroxisome proliferator-activated receptor gamma/Nuclear receptor coactivator 2 (Homo sapiens, UniProt P37231); assay: TR-FRET dose response biochemical High Throughput Screening assay for agonists of the steroid receptor coactivator 2 (SRC-2) recruitment by the peroxisome proliferator-activated receptor gamma (PPAR gamma): non-selective agonists. [Related pubchem assays: 1297, 1032 ]; format: functional
[4] = molecular target: Peroxisome proliferator-activated receptor gamma/Nuclear receptor coactivator 3 (Homo sapiens, UniProt P37231); assay: TR-FRET dose response biochemical High Throughput Screening assay for agonists of the steroid receptor coactivator 3 (SRC-3) recruitment by the peroxisome proliferator-activated receptor gamma (PPAR gamma): non-selective agonists. [Related pubchem assays: 1301 (Confirmation screen.), 1048 (Primary screen.)]; format: functional
[5] = molecular target: T1, CAAX prenyl protease 2 (Saccharomyces cerevisiae S288c, UniProt Q03530); format: biochemical
T1 sequence (Q03530 whole entry): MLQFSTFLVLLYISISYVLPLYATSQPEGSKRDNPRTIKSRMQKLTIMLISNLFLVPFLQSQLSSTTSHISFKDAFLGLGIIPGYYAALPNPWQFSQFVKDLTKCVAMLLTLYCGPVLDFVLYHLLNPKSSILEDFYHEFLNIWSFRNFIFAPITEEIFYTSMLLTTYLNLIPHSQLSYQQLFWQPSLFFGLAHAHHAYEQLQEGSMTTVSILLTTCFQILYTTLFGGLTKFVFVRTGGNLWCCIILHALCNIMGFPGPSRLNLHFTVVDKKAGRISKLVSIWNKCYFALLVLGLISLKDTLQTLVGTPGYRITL

[6] = HEK-293T cell viability reduction – luminescence, B-cell screen hits, cytotoxicity control for BCR NF-kB inhibitor project, dose response (AID 489021); format: functional, cell-based;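 further: HEK-293T cells carrying an NF-kB luciferase reporter; cells exposed to compound for about 14 hours before viability readout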
[7] = molecular target: Cytochrome P450 2C9 (Homo sapiens, UniProt P11712)
[8] = molecular target: Cytochrome P450 2C19 (Homo sapiens, UniProt P33261); assay: Cytochrome panel assay with activity outcomes. Panel member name: p450-cyp2c19 Compounds with AC50 equal or less than 10 uM are considered active; format: functional
[9] = viability of HCT116 lacking mutant beta-catenin – cell-based, human colon tumor, dose response (AID 1045); format: functional;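 further: HCT116 colon tumor cells with beta catenin knocked out; cells exposed to compound for 60 hours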
[10] = Luminescence Cell-Based Dose Retest to Confirm Inhibitors of Cancer Stem Cells. [Related pubchem assays (depositor defined):AID2717, AID2721]; format: functional; conditions: Homo sapiens
[11] = viability of PTEN-deleted HCT116 cells – cell-based, HCT116 PTEN knockout, dose response (AID 1047); format: functional;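 further: HCT116 colon tumor cells with PTEN knocked out; cells exposed to compound for 60 hours before readout; potency for loss of cell viability measured by luminescence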
[12] = molecular target: T2, X-box-binding protein 1 (Homo sapiens, UniProt P17861); format: functional, Cricetulus griseus;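 further: confirmatory dose-response counter-screen serving a CHOP assay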
T2 sequence (P17861 whole entry): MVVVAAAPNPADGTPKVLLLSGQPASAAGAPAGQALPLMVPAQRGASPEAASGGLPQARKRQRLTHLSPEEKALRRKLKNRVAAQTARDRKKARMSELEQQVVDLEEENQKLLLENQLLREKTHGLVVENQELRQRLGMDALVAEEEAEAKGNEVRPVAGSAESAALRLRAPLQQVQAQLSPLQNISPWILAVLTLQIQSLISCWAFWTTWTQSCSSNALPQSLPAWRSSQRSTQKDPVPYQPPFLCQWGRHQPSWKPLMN

[13] = system: INS1; assay: INS-1E survival protection against cytokine death – cell-based, luminescence, retest, dose response (AID 449756); format: functional; conditions: Rattus norvegicus;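 further: cell death triggered by IL-1 beta plus TNF-alpha plus IFN-gamma mixture; protective hits raise ATP signal compared with cytokine alone wells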
[14] = molecular target: DNA dC->dU-editing enzyme APOBEC-3G (Homo sapiens, UniProt Q9HC16); assay: Dose Response confirmation of small molecule APOBEC3G DNA Deaminase Inhibitors via a fluorescence-based single-stranded DNA deaminase assay. [Related pubchem assays (depositor defined):AID493012, AID493028]; format: functional
[15] = molecular target: T3, Mannose-6-phosphate isomerase (Homo sapiens, UniProt P34949); assay: phosphomannose isomerase inhibition – biochemical, fluorescence intensity, confirmation (AID 1535)
T3 sequence (P34949 whole entry): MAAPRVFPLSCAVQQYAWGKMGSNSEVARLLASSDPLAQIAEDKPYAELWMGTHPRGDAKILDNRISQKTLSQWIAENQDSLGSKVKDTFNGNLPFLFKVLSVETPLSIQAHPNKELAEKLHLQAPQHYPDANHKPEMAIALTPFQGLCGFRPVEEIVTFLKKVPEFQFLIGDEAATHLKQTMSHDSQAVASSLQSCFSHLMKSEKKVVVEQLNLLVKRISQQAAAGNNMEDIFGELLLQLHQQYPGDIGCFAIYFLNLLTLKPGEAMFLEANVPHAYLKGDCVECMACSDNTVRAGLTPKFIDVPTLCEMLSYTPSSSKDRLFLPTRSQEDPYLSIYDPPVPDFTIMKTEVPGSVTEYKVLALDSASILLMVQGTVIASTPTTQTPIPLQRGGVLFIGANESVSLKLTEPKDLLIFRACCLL

[16] = molecular target: T4, Phosphomannomutase 2 (Homo sapiens, UniProt O15305); assay: Counter screen SAR assay for PMM2 inhibitors via a fluorescence intensity assay. [Related pubchem assays (depositor defined):AID1545, AID1574]
T4 sequence (O15305 whole entry): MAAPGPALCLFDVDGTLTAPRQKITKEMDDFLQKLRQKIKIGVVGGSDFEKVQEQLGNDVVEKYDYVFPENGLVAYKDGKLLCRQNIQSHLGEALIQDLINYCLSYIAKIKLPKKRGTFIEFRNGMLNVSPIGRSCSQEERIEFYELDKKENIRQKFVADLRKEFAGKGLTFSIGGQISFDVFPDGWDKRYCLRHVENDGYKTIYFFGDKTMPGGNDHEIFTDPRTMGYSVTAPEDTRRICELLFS

[17] = molecular target: T5, Phosphoethanolamine/phosphocholine phosphatase (Homo sapiens, UniProt Q8TCT1); assay: SAR assay for compounds that inhibit PHOSPHO1. [Related pubchem assays (depositor defined):AID1545, AID1565, AID1574]
T5 sequence (Q8TCT1 whole entry): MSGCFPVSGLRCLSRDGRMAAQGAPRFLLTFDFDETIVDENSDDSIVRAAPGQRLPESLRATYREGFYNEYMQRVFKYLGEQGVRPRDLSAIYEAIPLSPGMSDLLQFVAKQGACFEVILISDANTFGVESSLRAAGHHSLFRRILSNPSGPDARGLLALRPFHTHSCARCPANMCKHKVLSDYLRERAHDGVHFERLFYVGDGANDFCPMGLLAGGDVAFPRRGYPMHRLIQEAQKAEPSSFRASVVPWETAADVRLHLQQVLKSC

[18] = molecular target: Large T antigen (Simian virus 40, UniProt P03070); format: functional, Betapolyomavirus macacae;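 further: Confirmatory-stage PubChem screen for compounds that inhibit SV40 T antigen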
[19] = molecular target: T6, Hexokinase HKDC1 (Homo sapiens, UniProt Q2TB90); assay: inhibition of HKDC1 glucose phosphorylation – biochemical, W721R variant, dose response (AID 504729); format: functional
T6 sequence (Q2TB90 whole entry): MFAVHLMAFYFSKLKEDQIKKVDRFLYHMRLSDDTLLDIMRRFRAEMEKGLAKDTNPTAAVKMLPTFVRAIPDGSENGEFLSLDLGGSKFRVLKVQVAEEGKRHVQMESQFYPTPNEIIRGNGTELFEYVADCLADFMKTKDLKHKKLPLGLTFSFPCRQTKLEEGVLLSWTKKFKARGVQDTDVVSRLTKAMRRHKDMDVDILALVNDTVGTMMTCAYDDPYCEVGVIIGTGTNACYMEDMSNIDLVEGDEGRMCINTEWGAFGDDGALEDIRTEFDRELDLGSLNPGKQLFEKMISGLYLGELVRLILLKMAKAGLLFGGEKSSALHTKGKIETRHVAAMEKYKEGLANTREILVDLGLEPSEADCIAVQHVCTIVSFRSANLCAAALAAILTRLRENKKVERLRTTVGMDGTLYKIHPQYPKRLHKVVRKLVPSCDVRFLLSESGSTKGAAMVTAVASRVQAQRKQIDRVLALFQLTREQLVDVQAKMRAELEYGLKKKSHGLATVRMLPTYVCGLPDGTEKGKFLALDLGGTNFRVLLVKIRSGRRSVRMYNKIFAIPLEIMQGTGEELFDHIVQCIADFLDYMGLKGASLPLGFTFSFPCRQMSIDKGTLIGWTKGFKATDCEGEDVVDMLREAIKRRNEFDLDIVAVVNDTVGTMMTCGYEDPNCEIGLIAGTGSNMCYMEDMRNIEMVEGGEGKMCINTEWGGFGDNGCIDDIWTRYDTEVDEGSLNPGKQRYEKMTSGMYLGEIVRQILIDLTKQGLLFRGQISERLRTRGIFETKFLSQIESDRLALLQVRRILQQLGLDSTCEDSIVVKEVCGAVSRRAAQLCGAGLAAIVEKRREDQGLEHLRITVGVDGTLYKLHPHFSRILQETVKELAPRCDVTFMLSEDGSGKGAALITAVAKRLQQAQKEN

[20] = molecular target: Heat shock protein HSP 90-alpha (Homo sapiens, UniProt P07900); format: functional, organism-based
[21] = molecular target: Nonstructural protein 1 (Influenza A virus, UniProt Q194T2); format: functional, Influenza A virus (A/California/07/2009(H1N1))
[22] = molecular target: Beta-galactosidase (Escherichia coli, UniProt Q8VNN2); assay: detection-enzyme interference by beta-gal modulators – biochemical, E. coli enzyme, set 3, artefact control for CCR6 antagonist project, dose response (AID 504712); format: functional
[23] = cells; format: functional, cell-based
[24] = cells; format: functional, cell-based; remark: listed apart in the source
[25] = molecular target: T7, C-C chemokine receptor type 6 (Homo sapiens, UniProt P51684); assay: antagonism of CCR6 beta-arrestin recruitment – cell-based, luminescent beta-arrestin readout, dose response (AID 504728); format: functional
T7 sequence (P51684 whole entry): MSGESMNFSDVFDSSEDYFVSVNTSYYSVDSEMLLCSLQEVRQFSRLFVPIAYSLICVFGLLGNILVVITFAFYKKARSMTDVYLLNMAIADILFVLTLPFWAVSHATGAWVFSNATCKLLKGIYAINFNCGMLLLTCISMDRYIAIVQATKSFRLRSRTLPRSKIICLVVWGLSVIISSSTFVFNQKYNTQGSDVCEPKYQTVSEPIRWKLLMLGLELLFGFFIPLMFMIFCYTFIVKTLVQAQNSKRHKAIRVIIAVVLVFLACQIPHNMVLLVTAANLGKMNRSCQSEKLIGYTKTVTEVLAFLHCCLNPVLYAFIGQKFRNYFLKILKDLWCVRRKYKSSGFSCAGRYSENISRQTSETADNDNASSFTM

[26] = molecular target: Disintegrin and metalloproteinase domain-containing protein 17 (Homo sapiens, UniProt P78536); assay: inhibition of ADAM17 substrate cleavage – biochemical, quenched FRET substrate, counter-screen for ADAM10 exosite inhibitor project, dose response (AID 743253)
Sequence of Disintegrin and metalloproteinase domain-containing protein 17 (P78536 whole entry, the tested form may be a part): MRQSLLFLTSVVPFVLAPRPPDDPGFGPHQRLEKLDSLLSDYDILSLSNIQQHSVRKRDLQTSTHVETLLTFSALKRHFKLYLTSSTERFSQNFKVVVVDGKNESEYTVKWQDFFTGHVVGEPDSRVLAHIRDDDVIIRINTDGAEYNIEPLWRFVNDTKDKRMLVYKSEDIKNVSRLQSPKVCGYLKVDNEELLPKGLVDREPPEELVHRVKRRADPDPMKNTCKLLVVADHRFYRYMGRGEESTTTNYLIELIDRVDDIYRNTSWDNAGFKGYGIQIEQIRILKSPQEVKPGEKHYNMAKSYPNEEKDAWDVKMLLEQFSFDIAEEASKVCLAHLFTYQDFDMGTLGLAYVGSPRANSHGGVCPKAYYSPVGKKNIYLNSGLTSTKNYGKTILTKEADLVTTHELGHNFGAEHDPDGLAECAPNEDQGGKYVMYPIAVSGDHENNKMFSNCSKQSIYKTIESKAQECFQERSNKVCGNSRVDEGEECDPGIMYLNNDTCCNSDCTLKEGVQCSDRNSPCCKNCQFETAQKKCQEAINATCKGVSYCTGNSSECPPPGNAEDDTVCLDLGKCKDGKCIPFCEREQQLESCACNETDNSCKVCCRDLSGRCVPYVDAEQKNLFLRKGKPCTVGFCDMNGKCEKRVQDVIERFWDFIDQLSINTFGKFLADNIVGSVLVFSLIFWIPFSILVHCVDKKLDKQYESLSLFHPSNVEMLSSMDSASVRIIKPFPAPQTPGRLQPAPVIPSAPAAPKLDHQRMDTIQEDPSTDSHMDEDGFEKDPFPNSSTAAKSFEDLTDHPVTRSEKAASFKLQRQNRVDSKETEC

Sequence of Trypsin (P00761 whole entry): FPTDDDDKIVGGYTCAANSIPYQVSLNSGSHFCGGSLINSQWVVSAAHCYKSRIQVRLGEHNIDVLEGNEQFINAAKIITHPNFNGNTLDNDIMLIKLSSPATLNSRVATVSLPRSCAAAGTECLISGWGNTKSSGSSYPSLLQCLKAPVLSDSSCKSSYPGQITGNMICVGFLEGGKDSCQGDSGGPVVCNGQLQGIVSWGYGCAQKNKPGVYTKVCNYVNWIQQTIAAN
Sequence of Nonstructural protein 1 (Q194T2 whole entry): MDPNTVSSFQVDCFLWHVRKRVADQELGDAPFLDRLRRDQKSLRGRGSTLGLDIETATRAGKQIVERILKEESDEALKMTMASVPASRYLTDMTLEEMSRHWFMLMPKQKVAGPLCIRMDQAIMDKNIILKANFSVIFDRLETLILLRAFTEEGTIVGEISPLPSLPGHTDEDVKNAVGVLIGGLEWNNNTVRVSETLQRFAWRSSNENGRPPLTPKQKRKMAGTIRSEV
Sequence of Cytochrome P450 2C9 (P11712 whole entry): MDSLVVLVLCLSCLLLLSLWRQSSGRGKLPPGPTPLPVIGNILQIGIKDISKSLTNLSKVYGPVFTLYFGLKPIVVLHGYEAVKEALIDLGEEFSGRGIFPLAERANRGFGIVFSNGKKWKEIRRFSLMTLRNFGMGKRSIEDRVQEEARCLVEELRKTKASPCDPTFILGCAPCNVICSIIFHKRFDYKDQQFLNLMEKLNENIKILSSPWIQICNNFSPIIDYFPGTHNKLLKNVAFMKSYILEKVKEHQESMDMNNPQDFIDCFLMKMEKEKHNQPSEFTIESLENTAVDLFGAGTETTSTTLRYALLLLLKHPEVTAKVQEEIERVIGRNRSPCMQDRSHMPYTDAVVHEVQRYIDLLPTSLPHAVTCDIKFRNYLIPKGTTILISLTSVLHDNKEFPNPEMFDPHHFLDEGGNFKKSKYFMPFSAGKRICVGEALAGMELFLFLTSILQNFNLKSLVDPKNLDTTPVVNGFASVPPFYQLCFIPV
Sequence of Large T antigen (P03070 whole entry): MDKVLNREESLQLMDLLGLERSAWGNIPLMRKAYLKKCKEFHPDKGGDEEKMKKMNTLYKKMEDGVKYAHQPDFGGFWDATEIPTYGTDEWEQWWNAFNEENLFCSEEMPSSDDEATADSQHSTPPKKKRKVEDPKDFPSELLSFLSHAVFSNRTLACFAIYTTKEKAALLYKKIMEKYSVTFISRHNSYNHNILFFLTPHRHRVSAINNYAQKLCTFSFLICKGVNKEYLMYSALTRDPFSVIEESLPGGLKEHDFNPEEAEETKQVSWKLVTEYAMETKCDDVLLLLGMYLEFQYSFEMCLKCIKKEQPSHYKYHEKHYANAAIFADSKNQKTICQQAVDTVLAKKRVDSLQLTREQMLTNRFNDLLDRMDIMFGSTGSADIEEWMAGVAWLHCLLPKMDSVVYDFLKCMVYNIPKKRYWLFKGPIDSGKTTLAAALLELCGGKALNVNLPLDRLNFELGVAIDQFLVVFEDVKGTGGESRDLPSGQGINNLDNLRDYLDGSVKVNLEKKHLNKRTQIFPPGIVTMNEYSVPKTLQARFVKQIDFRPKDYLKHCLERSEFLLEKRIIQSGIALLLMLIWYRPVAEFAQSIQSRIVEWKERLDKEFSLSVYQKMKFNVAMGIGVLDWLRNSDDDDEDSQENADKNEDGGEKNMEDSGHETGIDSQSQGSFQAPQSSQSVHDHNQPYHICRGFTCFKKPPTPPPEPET
Sequence of Cytochrome P450 2C19 (P33261 whole entry): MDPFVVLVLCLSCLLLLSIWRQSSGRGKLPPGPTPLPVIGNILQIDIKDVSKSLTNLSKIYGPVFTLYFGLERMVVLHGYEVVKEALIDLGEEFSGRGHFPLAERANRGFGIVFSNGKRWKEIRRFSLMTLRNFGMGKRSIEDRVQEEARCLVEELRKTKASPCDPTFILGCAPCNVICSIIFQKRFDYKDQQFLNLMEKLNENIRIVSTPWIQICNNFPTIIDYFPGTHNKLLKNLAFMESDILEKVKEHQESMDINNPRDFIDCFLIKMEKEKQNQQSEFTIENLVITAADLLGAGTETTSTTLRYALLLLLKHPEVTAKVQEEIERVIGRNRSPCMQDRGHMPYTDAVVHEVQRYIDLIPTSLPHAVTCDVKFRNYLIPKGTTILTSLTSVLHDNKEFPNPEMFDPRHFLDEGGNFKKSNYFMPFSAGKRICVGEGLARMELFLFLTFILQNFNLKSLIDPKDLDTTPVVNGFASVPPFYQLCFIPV
Sequence of Beta-galactosidase (Q8VNN2 whole entry): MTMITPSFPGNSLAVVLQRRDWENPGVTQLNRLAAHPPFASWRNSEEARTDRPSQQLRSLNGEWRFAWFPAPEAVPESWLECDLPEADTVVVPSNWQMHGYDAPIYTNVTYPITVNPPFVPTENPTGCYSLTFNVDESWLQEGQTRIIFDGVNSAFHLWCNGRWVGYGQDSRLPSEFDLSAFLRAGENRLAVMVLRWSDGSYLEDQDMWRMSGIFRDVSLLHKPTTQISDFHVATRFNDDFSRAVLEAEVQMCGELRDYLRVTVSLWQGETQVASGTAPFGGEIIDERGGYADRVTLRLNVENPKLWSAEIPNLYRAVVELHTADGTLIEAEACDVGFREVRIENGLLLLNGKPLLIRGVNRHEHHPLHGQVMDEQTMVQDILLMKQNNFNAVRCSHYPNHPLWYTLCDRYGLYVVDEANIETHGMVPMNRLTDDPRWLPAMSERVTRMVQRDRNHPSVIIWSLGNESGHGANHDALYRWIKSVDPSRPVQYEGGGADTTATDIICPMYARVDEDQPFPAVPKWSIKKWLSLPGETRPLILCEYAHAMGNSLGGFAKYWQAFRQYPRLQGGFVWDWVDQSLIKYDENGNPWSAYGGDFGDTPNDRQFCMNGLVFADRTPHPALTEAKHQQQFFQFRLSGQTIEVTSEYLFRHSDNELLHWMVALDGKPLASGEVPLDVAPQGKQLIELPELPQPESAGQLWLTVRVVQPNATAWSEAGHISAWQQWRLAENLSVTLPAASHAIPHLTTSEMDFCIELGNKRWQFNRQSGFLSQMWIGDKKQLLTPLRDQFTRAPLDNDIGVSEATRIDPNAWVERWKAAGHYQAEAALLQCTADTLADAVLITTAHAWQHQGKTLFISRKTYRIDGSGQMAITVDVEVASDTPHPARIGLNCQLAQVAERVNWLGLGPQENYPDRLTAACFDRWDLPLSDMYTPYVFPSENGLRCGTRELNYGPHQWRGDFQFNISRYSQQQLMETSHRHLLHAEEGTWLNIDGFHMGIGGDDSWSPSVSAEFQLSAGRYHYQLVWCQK
Sequence of DNA dC->dU-editing enzyme APOBEC-3G (Q9HC16 whole entry): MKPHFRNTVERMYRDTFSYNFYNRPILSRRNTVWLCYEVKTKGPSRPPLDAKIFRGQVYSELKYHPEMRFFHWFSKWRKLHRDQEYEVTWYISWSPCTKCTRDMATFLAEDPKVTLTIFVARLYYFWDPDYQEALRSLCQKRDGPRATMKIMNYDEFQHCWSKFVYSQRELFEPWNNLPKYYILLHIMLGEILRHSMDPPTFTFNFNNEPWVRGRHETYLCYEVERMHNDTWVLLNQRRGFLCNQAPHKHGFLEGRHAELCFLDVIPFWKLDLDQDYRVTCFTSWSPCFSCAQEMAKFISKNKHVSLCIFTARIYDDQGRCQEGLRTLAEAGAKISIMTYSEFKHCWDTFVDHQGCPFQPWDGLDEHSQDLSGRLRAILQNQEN

## S=c1[nH]nc(-c2ccccc2)o1
[1]
  EC50: 16.2 µM (inactive)
[2]
  AC50: 13.3 µM (active)
[3]
  EC50: 8.1 µM (active)
[4]
  EC50: > 79.4 µM (not active)

## CC1CCN(C(=O)c2cc3nc(-c4ccccc4)cc(-c4ccccc4)n3n2)CC1
[5]
  AC50: 19.1 µM (active)
[2]
  AC50: > 100 µM (inactive)

## Cc1ccc(-c2nn3c(C)nnc3c3ccccc23)cc1S(=O)(=O)NCCN1CCOCC1
[6]
  IC50: > 80 µM (inactive)
[7]
  AC50: 20 µM (inconclusive)
[8]
  AC50: inconclusive

## Cc1ccc(S(=O)(=O)Nc2ccc(NC(=O)Nc3cccc(C(F)(F)F)c3)cc2)cc1
[9]
  EC50: 12.9 µM (active)
[10]
  AC50: 1.36 µM (active)
[11]
  EC50: 9.49 µM (active)
[12]
  Absolute IC50 (XBP1): 10 µM
[13]
  AC50: 8.16 µM (active)

## CCn1c(=O)c2cc(C(=O)NCc3cccs3)sc2c2ccccc21
[6]
  IC50: > 80 µM (inactive)

## COc1ccc(C(=O)Nc2ccc(OC)c([N+](=O)[O-])c2)cc1Br
[6]
  IC50: > 80 µM (inactive)

## Nc1c(N(C(=O)Nc2ccc(Cl)c(Cl)c2)C2CCCC2)c(=O)[nH]c(=O)n1Cc1ccccc1
[9]
  EC50: 15.3 µM (active)
[11]
  EC50: 15.5 µM (active)
[12]
  Absolute IC50 (XBP1): 10 µM

## COC(=O)/C(=C(/F)Sc1cc(C)c(O)c(C)c1)C(F)(F)F
[12]
  Absolute IC50 (XBP1): 10 µM

## CCOC(=O)c1sc(NC(=O)C(C)C)c(C#N)c1C
[14]
  IC50: 39.3 µM (active)

## Cc1cccc(-n2sc3ccccc3c2=O)c1
[15]
  IC50: 5.29 µM (active)
[16]
  IC50: 22.3 µM (active)
[17]
  IC50: 2.73 µM (inactive)

## Cc1cccc(-n2sc3cc(F)ccc3c2=O)c1C
[15]
  IC50: 22.7 µM (active)
[16]
  IC50: 18.3 µM (active)
[17]
  IC50: 6.54 µM (inactive)

## Cc1c(Cl)cccc1-n1sc2cc([N+](=O)[O-])cc(OCC(F)(F)F)c2c1=O
[15]
  IC50: 3.03 µM (active)
[16]
  IC50: 9.06 µM (active)
[17]
  IC50: 0.555 µM (active)

## CC[C@H](C)/C=C(C)/C=C/C1=CC2=C(Cl)C(=O)[C@@](C)(OC(C)=O)C(=O)C2=CO1
[18]
  IC50: 30.4 µM (active)
[19]
  IC50: 16.8 µM (active)

## O=[N+]([O-])c1ccc(O)c(/C=N/Nc2ccccn2)c1
[20]
  AC50: 3.97 µM (active)
[21]
  IC50: 7.05 µM (active)
[22]
  IC50: > 66.6 µM (inactive)
[23]
  EC50: > 350 µM (not active)
[24]
  EC50: > 350 µM (not active)
[13]
  AC50: 0.342 µM (active)
[25]
  IC50: > 66.6 µM (inactive)
[26]
  IC50: 9.75 µM (active)

## COCc1c(C(=O)N/N=C/C2CC=CCC2)nnn1-c1nonc1N (stereo unspecified)
[5]
  AC50: 29.9 µM (active)
